Data as given in article PMC4490784, “Compensatory induction of MYC expression by sustained CDK9 inhibition via a BRD4-dependent mechanism” (eLife, 2015).

Legend:
Test in all cases: KINOMEscan binding assay
CDKL5 = biological target: T1, CDKL5 (Homo sapiens, UniProt O76039); conditions: read-out: % Retention on Solid Support
T1 construct: purchased DiscoveRx KINOMEscan
In short: (§1)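 Panel of >400 kinases screened by active-site competition binding, compound at 1 and 10 µM.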

RIOK1 = biological target: T2, RIOK1 (Homo sapiens, UniProt Q9BRS2); conditions: read-out: % Retention on Solid Support
T2 construct: purchased DiscoveRx KINOMEscan
In short: as §1

CDKL2 = biological target: T3, CDKL2 (Homo sapiens, UniProt Q92772); conditions: read-out: % Retention on Solid Support
T3 construct: purchased DiscoveRx KINOMEscan
T3 sequence (Q92772 whole entry): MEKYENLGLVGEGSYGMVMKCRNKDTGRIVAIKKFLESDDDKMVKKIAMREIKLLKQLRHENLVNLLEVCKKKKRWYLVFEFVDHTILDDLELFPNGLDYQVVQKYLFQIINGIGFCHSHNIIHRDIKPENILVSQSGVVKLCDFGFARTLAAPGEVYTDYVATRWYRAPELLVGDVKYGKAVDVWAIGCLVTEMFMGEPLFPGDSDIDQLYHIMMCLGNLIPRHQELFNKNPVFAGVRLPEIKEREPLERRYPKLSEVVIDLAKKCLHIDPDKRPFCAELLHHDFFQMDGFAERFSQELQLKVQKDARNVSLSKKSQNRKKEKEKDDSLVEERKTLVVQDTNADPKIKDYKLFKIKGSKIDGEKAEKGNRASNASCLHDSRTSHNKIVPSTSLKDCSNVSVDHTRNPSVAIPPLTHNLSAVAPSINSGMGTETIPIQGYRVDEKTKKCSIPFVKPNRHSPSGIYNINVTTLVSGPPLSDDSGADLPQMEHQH
In short: as §1

MAP4K2 = biological target: T4, MAP4K2 (Homo sapiens, UniProt Q12851); conditions: read-out: % Retention on Solid Support
T4 construct: purchased DiscoveRx KINOMEscan
In short: as §1

FGR = biological target: T5, FGR (Homo sapiens, UniProt P09769); conditions: read-out: % Retention on Solid Support
T5 construct: purchased DiscoveRx KINOMEscan
T5 sequence (P09769 whole entry): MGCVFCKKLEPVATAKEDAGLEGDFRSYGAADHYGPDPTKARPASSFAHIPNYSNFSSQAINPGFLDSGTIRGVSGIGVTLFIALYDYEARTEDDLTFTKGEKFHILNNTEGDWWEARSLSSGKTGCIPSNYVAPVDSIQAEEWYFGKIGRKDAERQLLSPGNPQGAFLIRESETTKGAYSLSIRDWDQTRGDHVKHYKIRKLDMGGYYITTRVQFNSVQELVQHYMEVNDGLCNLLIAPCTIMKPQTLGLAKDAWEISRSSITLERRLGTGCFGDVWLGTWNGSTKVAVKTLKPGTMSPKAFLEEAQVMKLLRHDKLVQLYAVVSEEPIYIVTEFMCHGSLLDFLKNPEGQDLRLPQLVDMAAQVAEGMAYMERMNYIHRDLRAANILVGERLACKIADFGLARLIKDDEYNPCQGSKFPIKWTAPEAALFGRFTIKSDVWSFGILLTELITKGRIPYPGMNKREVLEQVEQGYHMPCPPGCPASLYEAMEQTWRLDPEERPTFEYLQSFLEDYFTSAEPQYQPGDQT
In short: as §1

[1] = biological target: T6, RSK1(Kin.Dom.2-C-terminal) (Homo sapiens, UniProt Q15418); conditions: read-out: % Retention on Solid Support
T6 construct: RSK1(Kin.Dom.2-C-terminal); purchased DiscoveRx KINOMEscan
T6 sequence (Q15418 392-735 limits assumed): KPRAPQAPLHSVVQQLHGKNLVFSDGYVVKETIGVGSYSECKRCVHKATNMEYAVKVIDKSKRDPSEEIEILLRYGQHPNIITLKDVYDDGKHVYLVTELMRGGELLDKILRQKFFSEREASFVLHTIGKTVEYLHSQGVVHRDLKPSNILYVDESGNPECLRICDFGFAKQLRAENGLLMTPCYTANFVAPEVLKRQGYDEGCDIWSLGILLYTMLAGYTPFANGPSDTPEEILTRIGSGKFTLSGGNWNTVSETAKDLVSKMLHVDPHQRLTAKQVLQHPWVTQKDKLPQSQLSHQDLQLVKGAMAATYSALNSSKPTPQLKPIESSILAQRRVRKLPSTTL
In short: as §1

PIM2 = biological target: T7, PIM2 (Homo sapiens, UniProt Q9P1W9); conditions: read-out: % Retention on Solid Support
T7 construct: purchased DiscoveRx KINOMEscan
In short: as §1

NLK = biological target: T8, NLK (Homo sapiens, UniProt Q9UBE8); conditions: read-out: % Retention on Solid Support
T8 construct: purchased DiscoveRx KINOMEscan
T8 sequence (Q9UBE8 whole entry): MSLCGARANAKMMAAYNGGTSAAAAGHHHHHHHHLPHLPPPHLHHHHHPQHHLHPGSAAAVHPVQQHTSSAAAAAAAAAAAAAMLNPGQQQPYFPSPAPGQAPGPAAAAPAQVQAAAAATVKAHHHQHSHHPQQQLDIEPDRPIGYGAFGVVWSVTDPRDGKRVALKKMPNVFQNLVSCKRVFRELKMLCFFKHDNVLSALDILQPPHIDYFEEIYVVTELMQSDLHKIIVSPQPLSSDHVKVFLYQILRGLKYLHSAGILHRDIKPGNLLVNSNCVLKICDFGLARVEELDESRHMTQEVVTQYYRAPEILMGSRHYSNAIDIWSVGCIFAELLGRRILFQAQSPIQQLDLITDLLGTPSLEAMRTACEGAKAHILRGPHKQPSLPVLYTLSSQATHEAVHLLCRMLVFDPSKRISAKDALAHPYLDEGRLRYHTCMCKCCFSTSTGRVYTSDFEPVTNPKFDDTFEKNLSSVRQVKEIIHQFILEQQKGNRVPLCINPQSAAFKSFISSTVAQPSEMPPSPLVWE
In short: as §1

HIPK2 = biological target: T9, HIPK2 (Homo sapiens, UniProt Q9H2X6); conditions: read-out: % Retention on Solid Support
T9 construct: purchased DiscoveRx KINOMEscan
In short: as §1

TIE1 = biological target: T10, TIE1 (Homo sapiens, UniProt P35590); conditions: read-out: % Retention on Solid Support
T10 construct: purchased DiscoveRx KINOMEscan
In short: as §1

MAP3K4 = biological target: T11, MAP3K4 (Homo sapiens, UniProt Q9Y6R4); conditions: read-out: % Retention on Solid Support
T11 construct: purchased DiscoveRx KINOMEscan
In short: as §1

AKT1 = biological target: T12, AKT1 (Homo sapiens, UniProt P31749); conditions: read-out: % Retention on Solid Support
T12 construct: purchased DiscoveRx KINOMEscan
In short: as §1

GRK1 = biological target: T13, GRK1 (Homo sapiens, UniProt Q15835); conditions: read-out: % Retention on Solid Support
T13 construct: purchased DiscoveRx KINOMEscan
T13 sequence (Q15835 whole entry): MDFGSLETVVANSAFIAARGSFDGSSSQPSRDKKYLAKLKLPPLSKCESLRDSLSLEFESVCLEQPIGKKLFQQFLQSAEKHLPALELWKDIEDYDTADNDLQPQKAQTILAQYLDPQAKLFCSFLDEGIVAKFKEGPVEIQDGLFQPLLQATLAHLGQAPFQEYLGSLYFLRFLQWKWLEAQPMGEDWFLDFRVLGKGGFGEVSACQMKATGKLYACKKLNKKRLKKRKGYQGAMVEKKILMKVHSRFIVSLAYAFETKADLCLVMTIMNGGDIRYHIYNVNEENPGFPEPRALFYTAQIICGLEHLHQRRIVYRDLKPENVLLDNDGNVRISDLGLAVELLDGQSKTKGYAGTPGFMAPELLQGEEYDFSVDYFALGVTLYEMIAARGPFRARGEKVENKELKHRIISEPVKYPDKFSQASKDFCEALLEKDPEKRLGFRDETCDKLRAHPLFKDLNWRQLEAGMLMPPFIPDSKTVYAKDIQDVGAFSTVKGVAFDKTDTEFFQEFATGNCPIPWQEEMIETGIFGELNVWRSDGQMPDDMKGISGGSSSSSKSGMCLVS
In short: as §1

[2] = biological target: T14, EGFR(L747-S752del, P753S) (Homo sapiens, UniProt P00533, DEL747-752/P753S)
T14 construct: purchased DiscoveRx KINOMEscan
In short: as §1

KIT(D816H) = biological target: T15, KIT(D816H) (Homo sapiens, UniProt P10721, D816H); conditions: 1 µM i-CDK9; read-out: % Retention on Solid Support
T15 construct: purchased DiscoveRx KINOMEscan
In short: as §1

VRK2 = biological target: T16, VRK2 (Homo sapiens, UniProt Q86Y07); conditions: 1 µM i-CDK9; read-out: % Retention on Solid Support
T16 construct: purchased DiscoveRx KINOMEscan
In short: as §1

FGFR3 = biological target: T17, FGFR3 (Homo sapiens, UniProt P22607); conditions: read-out: % Retention on Solid Support
T17 construct: purchased DiscoveRx KINOMEscan
In short: as §1

DYRK2 = biological target: T18, DYRK2 (Homo sapiens, UniProt Q92630); conditions: read-out: % Retention on Solid Support
T18 construct: purchased DiscoveRx KINOMEscan
T18 sequence (Q92630 1-601): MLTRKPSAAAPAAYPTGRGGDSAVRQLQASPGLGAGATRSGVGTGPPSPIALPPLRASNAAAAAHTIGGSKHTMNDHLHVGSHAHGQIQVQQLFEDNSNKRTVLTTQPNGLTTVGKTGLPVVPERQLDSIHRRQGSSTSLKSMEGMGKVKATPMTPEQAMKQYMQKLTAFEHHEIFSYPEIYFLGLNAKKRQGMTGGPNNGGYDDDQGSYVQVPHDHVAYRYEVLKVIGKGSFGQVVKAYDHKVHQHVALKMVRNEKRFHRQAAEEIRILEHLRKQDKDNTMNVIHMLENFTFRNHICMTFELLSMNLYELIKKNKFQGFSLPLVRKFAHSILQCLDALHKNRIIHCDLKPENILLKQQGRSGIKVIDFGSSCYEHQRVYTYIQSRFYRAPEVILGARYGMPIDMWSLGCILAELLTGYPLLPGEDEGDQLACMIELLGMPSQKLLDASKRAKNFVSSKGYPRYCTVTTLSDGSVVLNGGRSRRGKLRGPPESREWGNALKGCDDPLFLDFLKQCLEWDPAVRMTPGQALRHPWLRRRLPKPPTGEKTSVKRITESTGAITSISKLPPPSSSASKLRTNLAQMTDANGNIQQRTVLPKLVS
In short: as §1

EGFR(G719C) = biological target: T19, EGFR(G719C) (Homo sapiens, UniProt P00533, G719C)
T19 construct: purchased DiscoveRx KINOMEscan
In short: as §1

WEE2 = biological target: T20, WEE2 (Homo sapiens, UniProt P0C1S8); conditions: read-out: % Retention on Solid Support
T20 construct: purchased DiscoveRx KINOMEscan
T20 sequence (P0C1S8 whole entry): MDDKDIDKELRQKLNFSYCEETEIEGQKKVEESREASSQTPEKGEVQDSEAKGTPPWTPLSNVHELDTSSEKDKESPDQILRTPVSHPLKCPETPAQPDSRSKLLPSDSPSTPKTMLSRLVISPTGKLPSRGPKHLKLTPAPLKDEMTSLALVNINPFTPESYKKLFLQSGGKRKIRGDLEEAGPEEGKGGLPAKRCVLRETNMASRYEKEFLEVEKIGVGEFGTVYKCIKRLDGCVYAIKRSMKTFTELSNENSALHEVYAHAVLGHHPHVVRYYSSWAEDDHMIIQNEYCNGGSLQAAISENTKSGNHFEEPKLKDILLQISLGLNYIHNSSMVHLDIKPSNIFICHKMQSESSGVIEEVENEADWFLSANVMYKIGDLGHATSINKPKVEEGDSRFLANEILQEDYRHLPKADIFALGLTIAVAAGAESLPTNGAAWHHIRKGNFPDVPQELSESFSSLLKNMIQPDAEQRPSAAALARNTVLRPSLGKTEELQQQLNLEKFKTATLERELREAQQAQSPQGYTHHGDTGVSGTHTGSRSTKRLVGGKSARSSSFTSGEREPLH
In short: as §1

MLK2 = biological target: T21, MLK2 (Homo sapiens, UniProt Q02779); conditions: read-out: % Retention on Solid Support
T21 construct: purchased DiscoveRx KINOMEscan
T21 sequence (Q02779 whole entry): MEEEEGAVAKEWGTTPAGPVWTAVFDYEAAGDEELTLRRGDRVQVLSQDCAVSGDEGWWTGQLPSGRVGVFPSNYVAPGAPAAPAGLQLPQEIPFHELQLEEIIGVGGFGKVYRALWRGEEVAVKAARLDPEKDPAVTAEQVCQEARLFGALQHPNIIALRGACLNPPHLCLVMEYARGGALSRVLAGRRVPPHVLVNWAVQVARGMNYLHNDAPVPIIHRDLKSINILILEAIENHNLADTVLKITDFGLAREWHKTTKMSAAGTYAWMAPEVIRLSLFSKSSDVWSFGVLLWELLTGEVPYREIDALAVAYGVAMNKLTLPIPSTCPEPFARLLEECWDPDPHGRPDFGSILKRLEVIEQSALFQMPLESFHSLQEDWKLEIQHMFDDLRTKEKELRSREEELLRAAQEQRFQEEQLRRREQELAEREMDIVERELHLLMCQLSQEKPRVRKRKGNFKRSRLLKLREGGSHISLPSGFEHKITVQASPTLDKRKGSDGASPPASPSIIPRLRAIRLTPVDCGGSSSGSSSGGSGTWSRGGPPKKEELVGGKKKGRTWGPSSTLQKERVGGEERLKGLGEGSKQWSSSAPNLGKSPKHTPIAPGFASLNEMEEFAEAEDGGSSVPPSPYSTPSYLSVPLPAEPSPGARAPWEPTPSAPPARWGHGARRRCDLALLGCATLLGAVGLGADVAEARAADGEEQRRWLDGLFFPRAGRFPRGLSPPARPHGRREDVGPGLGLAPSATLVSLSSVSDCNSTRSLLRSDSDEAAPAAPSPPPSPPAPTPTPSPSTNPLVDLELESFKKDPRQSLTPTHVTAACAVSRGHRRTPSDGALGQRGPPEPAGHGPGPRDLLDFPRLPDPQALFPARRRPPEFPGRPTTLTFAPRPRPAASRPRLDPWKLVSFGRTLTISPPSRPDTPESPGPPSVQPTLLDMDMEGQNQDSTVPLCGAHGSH
In short: as §1

PIK3CA(M1043I) = biological target: T22, PIK3CA(M1043I) (Homo sapiens, UniProt P42336, M1043I); conditions: read-out: % Retention on Solid Support
T22 construct: purchased DiscoveRx KINOMEscan
T22 sequence (P42336 whole entry M1043I): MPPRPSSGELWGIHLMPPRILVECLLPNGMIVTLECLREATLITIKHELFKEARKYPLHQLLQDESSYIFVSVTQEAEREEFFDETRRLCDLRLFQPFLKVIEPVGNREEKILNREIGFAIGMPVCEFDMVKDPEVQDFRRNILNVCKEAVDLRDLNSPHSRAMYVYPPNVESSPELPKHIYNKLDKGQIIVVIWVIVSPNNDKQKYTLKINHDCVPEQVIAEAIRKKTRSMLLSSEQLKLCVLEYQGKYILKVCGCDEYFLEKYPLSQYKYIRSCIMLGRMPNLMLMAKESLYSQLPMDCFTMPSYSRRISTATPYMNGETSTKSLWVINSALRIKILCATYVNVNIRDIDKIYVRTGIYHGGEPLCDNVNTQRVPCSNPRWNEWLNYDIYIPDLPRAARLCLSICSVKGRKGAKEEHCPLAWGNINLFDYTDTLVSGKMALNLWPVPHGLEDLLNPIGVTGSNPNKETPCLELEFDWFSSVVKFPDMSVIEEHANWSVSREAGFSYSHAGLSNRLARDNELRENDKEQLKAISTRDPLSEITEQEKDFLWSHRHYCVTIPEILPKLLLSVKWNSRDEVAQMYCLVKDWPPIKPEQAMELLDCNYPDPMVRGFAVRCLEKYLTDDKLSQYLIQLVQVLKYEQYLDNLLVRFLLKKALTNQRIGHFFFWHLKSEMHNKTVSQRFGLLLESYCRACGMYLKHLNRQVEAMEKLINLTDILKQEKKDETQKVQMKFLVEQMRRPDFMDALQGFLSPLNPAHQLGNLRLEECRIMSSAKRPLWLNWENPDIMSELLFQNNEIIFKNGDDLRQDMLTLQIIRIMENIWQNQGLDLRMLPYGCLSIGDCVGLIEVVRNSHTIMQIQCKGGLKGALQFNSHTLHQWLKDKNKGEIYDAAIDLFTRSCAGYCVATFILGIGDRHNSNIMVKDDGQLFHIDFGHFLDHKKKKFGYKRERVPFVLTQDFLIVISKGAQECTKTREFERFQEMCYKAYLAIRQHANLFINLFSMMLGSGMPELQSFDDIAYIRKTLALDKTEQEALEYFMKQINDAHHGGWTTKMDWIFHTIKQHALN
In short: as §1

SMILES: N[C@H]1CC[C@H](Nc2cc(-c3cccc(NCc4cccc(F)c4)n3)c(Cl)cn2)CC1 [i-CDK9, N2′-(trans-4-aminocyclohexyl)-5′-chloro-N6-(3-fluorobenzyl)-2,4′-bipyridine-2′,6-diamine]
- remaining binding at 1 µM (CDKL5; 1 µM i-CDK9): 52%
- remaining binding at 10 µM (CDKL5; 10 µM i-CDK9): 3.8%
- remaining binding at 1 µM (RIOK1; 1 µM i-CDK9): 100%
- remaining binding at 10 µM (RIOK1; 10 µM i-CDK9): 57%
- remaining binding at 1 µM (CDKL2; 1 µM i-CDK9): 80%
- remaining binding at 10 µM (CDKL2; 10 µM i-CDK9): 14%
- remaining binding at 1 µM (MAP4K2; 1 µM i-CDK9): 64%
- remaining binding at 10 µM (MAP4K2; 10 µM i-CDK9): 10%
- remaining binding at 1 µM (FGR; 1 µM i-CDK9): 100%
- remaining binding at 10 µM (FGR; 10 µM i-CDK9): 98%
- remaining binding at 1 µM ([1]; 1 µM i-CDK9): 93%
- remaining binding at 10 µM ([1]; 10 µM i-CDK9): 84%
- remaining binding at 1 µM (PIM2; 1 µM i-CDK9): 96%
- remaining binding at 10 µM (PIM2; 10 µM i-CDK9): 22%
- remaining binding at 1 µM (NLK; 1 µM i-CDK9): 100%
- remaining binding at 10 µM (NLK; 10 µM i-CDK9): 91%
- remaining binding at 1 µM (HIPK2; 1 µM i-CDK9): 100%
- remaining binding at 10 µM (HIPK2; 10 µM i-CDK9): 37%
- remaining binding at 1 µM (TIE1; 1 µM i-CDK9): 85%
- remaining binding at 10 µM (TIE1; 10 µM i-CDK9): 100%
- remaining binding at 1 µM (MAP3K4; 1 µM i-CDK9): 87%
- remaining binding at 10 µM (MAP3K4; 10 µM i-CDK9): 96%
- remaining binding at 1 µM (AKT1; 1 µM i-CDK9): 100%
- remaining binding at 10 µM (AKT1; 10 µM i-CDK9): 100%
- remaining binding at 1 µM (GRK1; 1 µM i-CDK9): 95%
- remaining binding at 10 µM (GRK1; 10 µM i-CDK9): 100%
- % Retention on Solid Support ([2]; 1 µM i-CDK9): 46%
- % Retention on Solid Support ([2]; 10 µM i-CDK9): 65%
- remaining binding at 1 µM (KIT(D816H)): 100%
- remaining binding at 1 µM (VRK2): 100%
- remaining binding at 1 µM (FGFR3; 1 µM i-CDK9): 100%
- remaining binding at 10 µM (FGFR3; 10 µM i-CDK9): 95%
- remaining binding at 1 µM (DYRK2; 1 µM i-CDK9): 7.1%
- remaining binding at 10 µM (DYRK2; 10 µM i-CDK9): 33%
- % Retention on Solid Support (EGFR(G719C); 1 µM i-CDK9): 86%
- % Retention on Solid Support (EGFR(G719C); 10 µM i-CDK9): 46%
- remaining binding at 1 µM (WEE2; 1 µM i-CDK9): 100%
- remaining binding at 10 µM (WEE2; 10 µM i-CDK9): 100%
- remaining binding at 1 µM (MLK2; 1 µM i-CDK9): 100%
- remaining binding at 10 µM (MLK2; 10 µM i-CDK9): 100%
- remaining binding at 1 µM (PIK3CA(M1043I); 1 µM i-CDK9): 100%
- remaining binding at 10 µM (PIK3CA(M1043I); 10 µM i-CDK9): 75%
